Measured values from BindingDB's records for doi:10.1021/jm400050y (University of Michigan, 2013).

Legend:
[1] = target: Delta-type opioid receptor (Rattus norvegicus, UniProt P33533); test: Displacement of [3H]diprenorphine from rat DOR expressed in rat C6 cells after 1 hr by liquid scintillation counting analysis
Mu-type opioid receptor [2] = target: T1, Mu-type opioid receptor (Rattus norvegicus, UniProt P33535); test: Agonist activity at rat MOR expressed in rat C6 cells assessed as stimulation of [35S]GTPgammaS binding after 1 hr by liquid scintillation counting analysis
T1 sequence (P33535 whole entry): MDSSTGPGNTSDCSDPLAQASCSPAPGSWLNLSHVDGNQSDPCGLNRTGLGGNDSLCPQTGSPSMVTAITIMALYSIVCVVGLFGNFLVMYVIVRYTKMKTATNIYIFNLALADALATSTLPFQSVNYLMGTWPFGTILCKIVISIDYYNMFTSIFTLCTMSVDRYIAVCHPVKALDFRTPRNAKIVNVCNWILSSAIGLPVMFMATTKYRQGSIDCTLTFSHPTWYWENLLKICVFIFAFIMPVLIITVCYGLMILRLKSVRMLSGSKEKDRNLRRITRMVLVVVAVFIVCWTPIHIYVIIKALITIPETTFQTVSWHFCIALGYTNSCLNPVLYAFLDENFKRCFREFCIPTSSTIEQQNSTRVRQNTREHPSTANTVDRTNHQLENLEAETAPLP

Mu-type opioid receptor [3] = target: T1, Mu-type opioid receptor; test: Displacement of [3H]diprenorphine from rat MOR expressed in rat C6 cells after 1 hr by liquid scintillation counting analysis

Chain of Delta-type opioid receptor (P33533 whole entry): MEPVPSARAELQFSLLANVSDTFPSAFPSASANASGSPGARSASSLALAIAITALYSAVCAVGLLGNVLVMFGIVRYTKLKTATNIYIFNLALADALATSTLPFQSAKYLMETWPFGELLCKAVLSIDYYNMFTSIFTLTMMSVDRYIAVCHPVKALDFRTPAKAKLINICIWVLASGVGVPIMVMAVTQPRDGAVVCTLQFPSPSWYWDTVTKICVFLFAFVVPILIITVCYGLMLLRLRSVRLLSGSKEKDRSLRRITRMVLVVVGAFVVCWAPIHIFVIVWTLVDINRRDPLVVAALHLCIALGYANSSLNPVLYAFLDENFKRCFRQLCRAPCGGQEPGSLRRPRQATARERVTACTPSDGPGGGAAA

SMILES	Ki [1] [nM]	EC50 (Mu-type opioid receptor [2]) [nM]	Ki (Mu-type opioid receptor [3]) [nM]
Cc1cc(O)cc(C)c1C[C@H](N)C(=O)N[C@@H]1CCNc2ccc(CCc3ccccc3)cc21	8.9	1.1	0.24
Cc1cc(O)cc(C)c1C[C@H](N)C(=O)N[C@H]1CCNc2ccc(CCc3ccccc3)cc21	120	–	16
